Laboratory results from ChEMBL document CHEMBL4152269, “New N-phenylpyrrolamide DNA gyrase B inhibitors: Optimization of efficacy and antibacterial activity” (Eur J Med Chem, 2018).
Converted amounts (≈) assume the structure as drawn.

Columns and labels:
[1] = target: DNA gyrase subunit B (Escherichia coli, UniProt P0AES6); experiment: Inhibition of Escherichia coli DNA gyrase by supercoiling assay
[2] = system: Enterococcus faecalis; experiment: Growth inhibition of Enterococcus faecalis ATCC 29212 at 50 uM after 24 hrs by broth microdilution method relative to control; format: functional; conditions: ATCC 29212, 24 h, read-out: GI
[3] = target: DNA gyrase subunit B (Staphylococcus aureus, UniProt P0A0K8); experiment: Inhibition of Staphylococcus aureus DNA gyrase B preincubated for 10 mins followed by ATP addition measured after 30 mins by purine nucleoside phosphorylase enzyme coupled spectrophotometric method
DNA gyrase subunit B (Staphylococcus aureus, UniProt P0A0K8), sequence (P0A0K8 whole entry): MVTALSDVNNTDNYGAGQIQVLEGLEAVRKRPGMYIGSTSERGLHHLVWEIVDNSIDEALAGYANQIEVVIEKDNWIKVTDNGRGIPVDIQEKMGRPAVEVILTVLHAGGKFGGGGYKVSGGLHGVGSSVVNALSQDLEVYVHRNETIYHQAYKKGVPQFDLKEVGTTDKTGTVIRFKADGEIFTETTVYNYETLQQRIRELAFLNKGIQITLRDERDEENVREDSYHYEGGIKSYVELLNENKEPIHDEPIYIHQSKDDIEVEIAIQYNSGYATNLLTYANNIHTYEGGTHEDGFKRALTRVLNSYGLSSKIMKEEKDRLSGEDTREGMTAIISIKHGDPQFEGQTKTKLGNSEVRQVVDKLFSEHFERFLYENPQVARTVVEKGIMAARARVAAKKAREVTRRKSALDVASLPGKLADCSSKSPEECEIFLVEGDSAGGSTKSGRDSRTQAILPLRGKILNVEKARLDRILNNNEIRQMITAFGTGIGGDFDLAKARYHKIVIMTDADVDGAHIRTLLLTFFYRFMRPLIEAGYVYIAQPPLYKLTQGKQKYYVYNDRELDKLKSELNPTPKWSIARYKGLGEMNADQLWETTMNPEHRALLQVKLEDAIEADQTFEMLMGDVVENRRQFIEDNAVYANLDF

[4] = system: Escherichia coli; experiment: Growth inhibition of Escherichia coli ATCC 25922 at 50 uM after 24 hrs by broth microdilution method relative to control; format: functional; conditions: ATCC 25922, 24 h, read-out: GI
[5] = system: Pseudomonas aeruginosa; experiment: Growth inhibition of Pseudomonas aeruginosa ATCC 27853 at 50 uM after 24 hrs by broth microdilution method relative to control; format: functional; conditions: ATCC 27853, 24 h, read-out: GI
[6] = Inhibition of Staphylococcus aureus topoisomerase-4 assessed as residual activity preincubated for 10 mins followed by ATP addition measured after 30 mins by purine nucleoside phosphorylase enzyme coupled spectrophotometric method
[7] = system: Staphylococcus aureus; experiment: Growth inhibition of Staphylococcus aureus ATCC 25923 at 50 uM after 24 hrs by broth microdilution method relative to control; format: functional; conditions: ATCC 25923, 24 h, read-out: GI
[8] = system: Escherichia coli; experiment: Growth inhibition of tolC deficient Escherichia coli JW5503 at 50 uM after 24 hrs by broth microdilution method relative to control; format: functional; conditions: JW5503, 24 h, read-out: GI
[9] = system: Escherichia coli; experiment: Growth inhibition of lpxC deficient Escherichia coli JD17464 at 50 uM after 24 hrs by broth microdilution method relative to control; format: functional; conditions: JD17464, 24 h, read-out: GI
[10] = system: Enterococcus faecalis; experiment: Antibacterial activity against Enterococcus faecalis ATCC 29212 after 18 hrs by broth microdilution method; format: functional; conditions: ATCC 29212, 18 h
[11] = system: Escherichia coli; experiment: Antibacterial activity against tolC deficient Escherichia coli JW5503 after 18 hrs by broth microdilution method; format: functional; conditions: JW5503, 18 h
[12] = system: Staphylococcus aureus; experiment: Inhibition of Staphylococcus aureus topoisomerase-4 assessed as residual activity at 1 uM preincubated for 10 mins followed by ATP addition measured after 30 mins by purine nucleoside phosphorylase enzyme coupled spectrophotometric method relative to control
[13] = Inhibition of Escherichia coli C-terminal His6-tagged topoisomerase-4 expressed in Escherichia coli BL21(DE3) preincubated for 10 mins followed by ATP addition measured after 30 mins by purine nucleoside phosphorylase enzyme coupled spectrophotometric method

| Compound | IC50 [1] [nM] | inhibition of growth at 50 µM [2] [%] | IC50 [3] [nM] | inhibition of growth at 50 µM [4] [%] | inhibition of growth at 50 µM [5] [%] | IC50 [6] [nM] | inhibition of growth at 50 µM [7] [%] | inhibition of growth at 50 µM [8] [%] | inhibition of growth at 50 µM [9] [%] | MIC90 [10] [µM] | MIC90 [11] [µM] | Activity [12] [%] | IC50 [13] [nM] |
| --- | --- | --- | --- | --- | --- | --- | --- | --- | --- | --- | --- | --- | --- |
| Cc1[nH]c(C(=O)Nc2ccc(C(=O)NCC(=O)O)c(OC(C)C)c2)c(Cl)c1Cl | 91 | 75 | 140 | 12 | 11 | 12000 | -9 | – | – | – | – | – | – |
| Cc1[nH]c(C(=O)Nc2ccc(C(=O)N[C@@H](C)c3n[nH]c(=O)o3)cc2OCCNC(=O)OC(C)(C)C)c(Cl)c1Cl | 1600 | 86 | – | -1 | 31 | – | 3 | -5 | 2 | 100 (≈ 58.3 µg/mL) | – | – | – |
| Cc1[nH]c(C(=O)Nc2ccc(C(=O)N[C@@H](C)C(=O)NN)cc2OCCNC(=O)OC(C)(C)C)c(Cl)c1Cl | – | 64 | – | 5 | 12 | – | 7 | 13 | 19 | – | – | – | – |
| Cc1[nH]c(C(=O)Nc2ccc(C(=O)N[C@@H](Cc3ccccc3)C(=O)O)cc2OC(C)C)c(Cl)c1Cl | – | 99 | – | -2 | 4 | – | -57 | 8 | 1 | 3.13 (≈ 1.62 µg/mL) | – | – | – |
| CC(C)Oc1cc(C(=O)N[C@H](C(=O)O)C(C)C)ccc1NC(=O)c1cc(Br)c(Br)[nH]1 | – | 80 | – | -2 | 11 | – | -13 | 18 | -1 | > 75 | – | – | – |
| CC(C)(C)OC(=O)NCCOc1cc(C(=O)NCC(=O)O)ccc1NC(=O)c1cc(Br)c(Br)[nH]1 | – | 1 | – | 2 | 9 | – | 7 | 5 | -2 | – | – | – | – |
| COC(=O)[C@H](C)NC(=O)c1ccc(NC(=O)c2cc(Br)c(Br)[nH]2)c(OC(C)C)c1 | – | 65 | – | 5 | 9 | – | 42 | 97 | 11 | – | 25 (≈ 13.3 µg/mL) | – | – |
| Cc1[nH]c(C(=O)Nc2ccc(C(=O)N[C@@H](C)C(=O)O)cc2OCCNC(=O)OC(C)(C)C)c(Cl)c1Cl | 590 | -1 | 1300 | 5 | 5 | – | -11 | 11 | 14 | – | – | 99 | – |
| Cc1[nH]c(C(=O)Nc2ccc(C(=O)N[C@@H](C)c3n[nH]c(=O)o3)cc2OCCN)c(Cl)c1Cl | 13 | -6 | 1000 | 1 | 16 | 960 | 0 | 88 | 13 | – | 50 (≈ 24.2 µg/mL) | – | 570 |
| COC(=O)[C@H](Cc1ccccc1)NC(=O)c1ccc(NC(=O)c2[nH]c(C)c(Cl)c2Cl)c(OC(C)C)c1 | – | 74 | – | 13 | 6 | – | -3 | -5 | 25 | – | – | – | – |
| COC(=O)[C@H](C)NC(=O)c1ccc(NC(=O)c2[nH]c(C)c(Cl)c2Cl)c(OC(C)C)c1 | – | 57 | – | 0 | 8 | – | -45 | -12 | 6 | – | – | – | – |
| Cc1[nH]c(C(=O)Nc2ccc(C(=O)N[C@@H](C)C(=O)NN)cc2OC(C)C)c(Cl)c1Cl | 280 | 99 | 22000 | 7 | 9 | – | 5 | 7 | 3 | 6.25 (≈ 2.85 µg/mL) | – | 92 | – |
| COC(=O)[C@H](Cc1ccccc1)NC(=O)c1ccc(NC(=O)c2cc(Br)c(Br)[nH]2)c(OCCN)c1 | – | 102 | – | 9 | 28 | – | 103 | 103 | 23 | 50 (≈ 30.4 µg/mL) | 25 (≈ 15.2 µg/mL) | – | – |
| Cc1[nH]c(C(=O)Nc2ccc(C(=O)N[C@@H](C)C(=O)O)cc2OCCN)c(Cl)c1Cl | 28 | 36 | 110 | 4 | 10 | 3200 | 17 | -4 | 5 | – | – | – | 530 |
| Cc1[nH]c(C(=O)Nc2ccc(C(=O)N[C@H](C)C(=O)O)cc2OC(C)C)c(Cl)c1Cl | 41 | 101 | 1600 | 4 | -1 | 1300 | 59 | 52 | 5 | 6.25 (≈ 2.76 µg/mL) | – | – | 7400 |
| CN(C)CCOc1cc(NC(=O)c2cc(Br)c(Br)[nH]2)ccc1C(=O)NCC(=O)O | – | 14 | – | 7 | 4 | – | 28 | – | – | – | – | – | – |
| NCCOc1cc(C(=O)NCC(=O)O)ccc1NC(=O)c1cc(Br)c(Br)[nH]1 | – | 0 | – | 0 | 11 | – | -2 | -8 | -5 | – | – | – | – |
| COC(=O)[C@@H](C)NC(=O)c1ccc(NC(=O)c2[nH]c(C)c(Cl)c2Cl)c(OC(C)C)c1 | – | -41 | – | 12 | 5 | – | 29 | 11 | 27 | – | – | – | – |
| COC(=O)[C@@H](NC(=O)c1ccc(NC(=O)c2cc(Br)c(Br)[nH]2)c(OC(C)C)c1)C(C)C | – | 59 | – | 13 | 6 | – | 33 | -9 | 22 | – | – | – | – |
| COC(=O)CNC(=O)c1ccc(NC(=O)c2[nH]c(C)c(Cl)c2Cl)cc1OC(C)C | – | 44 | – | 6 | -5 | – | -5 | – | – | – | – | – | – |
| Cc1[nH]c(C(=O)Nc2ccc(C(=O)N[C@@H](C)C(=O)O)cc2OC(C)C)c(Cl)c1Cl | 38 | 100 | 93 | 0 | 8 | 280 | -21 | 97 | -10 | 3.13 (≈ 1.38 µg/mL) | 50 (≈ 22.1 µg/mL) | – | 450 |
